Assay results: the supplement of paper PMC10307832

Key:
Assay in all cases: relative viability (nuclei count vs DMSO), 5 days (fraction); higher = more cells survive
ABC-1 = tested on: ABC-1
Method in brief: (§1)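 Five library-drug doses in √10 steps were combined with a fixed anchor-drug dose, or a single drug was given alone, by pin tool to lung cancer cell lines in 1536-well plates the day after seeding. Nuclei were stained and counted after 5 days. Relative viability is the nuclei count in treated wells over that in vehicle wells, taken as the median of duplicate plates.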

CAL-12T = tested on: CAL-12T
Method in brief: as §1

COR-L 105 = tested on: COR-L 105
Method in brief: as §1

ChaGo-K-1 = tested on: ChaGo-K-1
Method in brief: as §1

EMC-BAC-2 = tested on: EMC-BAC-2
Method in brief: as §1

EPLC-272H = tested on: EPLC-272H
Method in brief: as §1

HCC-15 = tested on: HCC-15
Method in brief: as §1

HCC-78 = tested on: HCC-78
Method in brief: as §1

HOP-62 = tested on: HOP-62
Method in brief: as §1

LXF-289 = tested on: LXF-289
Method in brief: as §1

NCI-H1666 = tested on: NCI-H1666
Method in brief: as §1

Compound: CCN(CC)CCCCNc1ncc2cc(-c3cc(OC)cc(OC)c3)c(NC(=O)NC(C)(C)C)nc2n1 + Cc1cc(Nc2cc(N3CCN(C)CC3)nc(Sc3ccc(NC(=O)C4CC4)cc3)n2)n[nH]1 [Tozasertib] (partner 0.1 µM)
- relative viability (ABC-1; first compound 0.01 µM): 0.211
- relative viability (ABC-1; first compound 0.03162 µM): 0.21
- relative viability (ABC-1; first compound 0.1 µM): 0.207
- relative viability (ABC-1; first compound 0.3162 µM): 0.148
- relative viability (ABC-1; first compound 1 µM): 0.187
- relative viability (CAL-12T; first compound 0.01 µM): 0.28
- relative viability (CAL-12T; first compound 0.03162 µM): 0.287
- relative viability (CAL-12T; first compound 0.1 µM): 0.368
- relative viability (CAL-12T; first compound 0.3162 µM): 0.257
- relative viability (CAL-12T; first compound 1 µM): 0.293
- relative viability (COR-L 105; first compound 0.01 µM): 0.366
- relative viability (COR-L 105; first compound 0.03162 µM): 0.345
- relative viability (COR-L 105; first compound 0.1 µM): 0.374
- relative viability (COR-L 105; first compound 0.3162 µM): 0.354
- relative viability (COR-L 105; first compound 1 µM): 0.354
- relative viability (ChaGo-K-1; first compound 0.01 µM): 0.233
- relative viability (ChaGo-K-1; first compound 0.03162 µM): 0.213
- relative viability (ChaGo-K-1; first compound 0.1 µM): 0.223
- relative viability (ChaGo-K-1; first compound 0.3162 µM): 0.242
- relative viability (ChaGo-K-1; first compound 1 µM): 0.219
- relative viability (EMC-BAC-2; first compound 0.01 µM): 0.162
- relative viability (EMC-BAC-2; first compound 0.03162 µM): 0.292
- relative viability (EMC-BAC-2; first compound 0.1 µM): 0.277
- relative viability (EMC-BAC-2; first compound 0.3162 µM): 0.31
- relative viability (EMC-BAC-2; first compound 1 µM): 0.26
- relative viability (EPLC-272H; first compound 0.01 µM): 0.282
- relative viability (EPLC-272H; first compound 0.03162 µM): 0.314
- relative viability (EPLC-272H; first compound 0.1 µM): 0.279
- relative viability (EPLC-272H; first compound 0.3162 µM): 0.212
- relative viability (EPLC-272H; first compound 1 µM): 0.234
- relative viability (HCC-15; first compound 0.01 µM): 0.45
- relative viability (HCC-15; first compound 0.03162 µM): 0.311
- relative viability (HCC-15; first compound 0.1 µM): 0.428
- relative viability (HCC-15; first compound 0.3162 µM): 0.342
- relative viability (HCC-15; first compound 1 µM): 0.247
- relative viability (HCC-78; first compound 0.01 µM): 0.433
- relative viability (HCC-78; first compound 0.03162 µM): 0.399
- relative viability (HCC-78; first compound 0.1 µM): 0.507
- relative viability (HCC-78; first compound 0.3162 µM): 0.55
- relative viability (HCC-78; first compound 1 µM): 0.446
- relative viability (HOP-62; first compound 0.01 µM): 0.473
- relative viability (HOP-62; first compound 0.03162 µM): 0.377
- relative viability (HOP-62; first compound 0.1 µM): 0.386
- relative viability (HOP-62; first compound 0.3162 µM): 0.408
- relative viability (HOP-62; first compound 1 µM): 0.319
- relative viability (LXF-289; first compound 0.01 µM): 0.201
- relative viability (LXF-289; first compound 0.03162 µM): 0.219
- relative viability (LXF-289; first compound 0.1 µM): 0.268
- relative viability (LXF-289; first compound 0.3162 µM): 0.186
- relative viability (LXF-289; first compound 1 µM): 0.156
- relative viability (NCI-H1666; first compound 0.01 µM): 0.529
- relative viability (NCI-H1666; first compound 0.03162 µM): 0.635
- relative viability (NCI-H1666; first compound 0.1 µM): 0.673
- relative viability (NCI-H1666; first compound 0.3162 µM): 0.672
- relative viability (NCI-H1666; first compound 1 µM): 0.614
